What was measured:
[1] = test system: H2-receptor; conditions: cited from earlier work; for potency / effectiveness as H2-antagonist versus other H2-antagonist: compared with burimamide or metiamide
[2] = cited from earlier work
[3] = test system: peptic ulcer disease; conditions: clinical evaluation; cited from earlier work
[4] = test system: gastric acid secretion; assay: Gastric Antisecretory Activity in the Heidenhain Pouch Dog; type: in vivo
Protocol: Prior to surgery, hematology and blood chemistry profiles are obtained and an assessment made as to the general health of selected female dogs. Dogs are vaccinated with Tissue Vax 5 (DHLP--Pitman-Moore) and housed in general animal quarters for four weeks' observation so incipient diseases may become apparent. Dogs are fasted with water ad libitum 24 hours prior to surgery.
Anesthesia is induced with Sodium Pentothal (Abbott) 25-30 mg/kg iv. Subsequent anesthesia is maintained with methoxyflurane (Pitman-Moore). A mid-line linea alba incision from xiphoid to umbilicus provides good exposure and ease of closure. The stomach is pulled up into the operative field, the greater curvature stretched out at multiple points and clamps placed along the selected line of incision. The pouch is made from the corpus of the stomach so that true parietal cell juice is obtained. About 30% of the corpus volume is resected. The cannula is made of light-weight,biologically-inert material such as nylon or Delrin with dimensions and attachments after DeVito and Harkins [J. Appl. Physiol., 14, 138 (1959)]. Post operatively, dogs are medicated with antibiotics and an analgesic. They are allowed 2-3 months for recovery. Experiments are carried out in the following way: Dogs are fasted overnight (~18 hours) with water ad libitum prior to each experiment. The dogs are placed in a sling and a saphenous vein cannulated for drug administration. Histamine as the base (100 μg/kg/hr) and chlorpheniramine maleate (0.25 mg/kg/hr) are infused continuously (in a volume of 6 ml/hr) with a Harvard infusion pump.
Ninety minutes' infusion are allowed for the dogs to reach a steady state of acid output. At this time the drug or normal saline (control) is administered concomitantly with the secretagogue in a volume of 0.5 ml/kg over a 30 second period. When oral studies are to be carried out, the drug is administered via gastric gavage in a volume of 5 ml/kg. Infusion of the secretagogue is continued and 15 minute samples of the gastric juice are taken for 4.5 hours. Each sample is measured to the nearest 0.5 ml and titratable acidity is determined by titrating a 1 ml sample to pH 7.0 with 0.2 N NaOH, using an Autoburet and an electrometric pH meter (Radiometer).Titratable acid output is calculated in microequivalents by multiplying the volume in milliliters by the acid concentration in milliequivalents per liter.
Results are expressed as percent inhibition relative to control readings. Dose response curves are constructed and ED50 values are calculated by regression analyses. From 3 to 5 dogs are used at each dose level and a minimum of three dosage levels are utilized for determination of a dose response curve.

[5] = test system: gastric acid secretion; assay: Gastric Antisecretory Activity in the Gastric Fistula Rat; type: in vivo, rat (male Long Evans); conditions: sc; for ED50: read-out: ED50 sc
Protocol: Male Long Evans rats weighing about 240-260 grams at the time of cannula implantation are used. […] The fistula components are designed and the operative procedure is carried out exactly as described in the above reference. Post operatively the animals are individually housed in solid bottom cages with sawdust and are allowed food and water ad libitum throughout the entire recovery period. Animals are not used for test purposes for at least 15 days after the operative procedure. The animals are fasted but allowed water ad libitum for 20 hours before the testing procedure is to begin. […] The catheter is then screwed into the cannula in place of the plugging screw and the rat is placed in a clear plastic rectangular cage measuring 40 cm long, 15 cm wide and 13 cm high. The bottom of the cage has a slit approximately 1.5 cm wide and 25 cm long running down the center to accommodate the catheter which hangs through it. In this way the rat is not restricted and can move freely about the cage during collection periods. The remainder of the assay is carried out as described by Ridley et al. [Research Comm. Chem. Path. […] Gastric secretions collected during the first hour after washing the stomach are discarded as they may be contaminated. For oral evaluation, the catheter is then removed from the cannula and replaced with the plugging screw. […] After this time the plugging screw is removed and replaced with a catheter to which a small plastic vial has been attached to collect the gastric secretions. A two hour sample is collected (this represents the control secretion), the catheter removed and replaced with the plugging screw. […] Forty-five minutes later the plugging screw is again removed, replaced with the catheter attached to a small plastic vial and another 2 hour sample is collected. The secretions in the second sample are compared to those of the control sample in order to determine the effects of the test drug. […] Titratable acid output is calculated in microequivalents by multiplying the volume in milliliters by the acid concentration in milliequivalents per liter. Results are expressed as percent inhibition relative to control readings. Dose response curves are constructed and ED50 values are calculated by regression analyses. At least three rats are used at each dosage level and a minimum of three dosage levels are utilized for determination of a dose response curve.

[6] = test system: agranulocytosis; conditions: in vivo; cited from earlier work

CNC(=S)NCCCCc1cnc[nH]1 [Burimamide]
inhibition of gastric secretion / clinical effectiveness ([1]; in animals and man): inhibits gastric secretion in animals and man | oral absorption [2]: oral absorption is poor

CNC(=NC#N)NCCSCc1nc[nH]c1C [Cimetidine]
therapeutic effect in treatment of peptic ulcer disease [3]: effective therapeutic agent in the treatment of peptic ulcer disease | potency / effectiveness as H2-antagonist versus other H2-antagonist [1]: as effective an H2 -antagonist as metiamide | ED50 ([4]; Canis lupus familiaris, iv): 2.18 µmol/kg | ED50 ([4]; Canis lupus familiaris, po): ~3.3 µmol/kg | ED50 ([4]; oral): 3.29 µmol/kg | ED50 ([5]; Rattus norvegicus): 3.8 µmol/kg | toxicity (agranulocytosis) [6]: without producing agranulocytosis

Nc1c(NCCCOc2cccc(CN3CCCCC3)c2)c(=O)c1=O [Example 1, 1-Amino-2-[3-(3-piperidinomethylphenoxy)propylamino]cyclobutene-3,4-dione]
ED50 ([4]; Canis lupus familiaris, oral, read-out: ED50): 0.175 µmol/kg | Potency Ratio (cimetidine = 1.0) ([4]; iv): 91 | Potency Ratio (cimetidine = 1.0) ([4]; oral): 19 | Potency Ratio (cimetidine = 1.0) ([5]; Gastric Fistula Rat): 130 | ED50 ([5]; Gastric Fistula Rat): 0.029 µmol/kg

CN(C)Cc1ccc(CSCCNc2c(N)c(=O)c2=O)o1 [Example 2, 1-Amino-2-{2-[(5-dimethylaminomethyl-2-furyl)methylthio]ethylamino}cyclobutene-3,4-dione]
Potency Ratio (cimetidine = 1.0) ([5]; Gastric Fistula Rat): ~ 2 | ED50 ([5]; Gastric Fistula Rat): ~2 µmol/kg

CNC(=S)NCCSCc1nc[nH]c1C [Metiamide]
potency / effectiveness as H2-antagonist versus other H2-antagonist [1]: more potent than burimamide | oral activity in man ([1]; oral, man): orally active in man | toxicity (agranulocytosis) [6]: toxicity (agranulocytosis)
